Reference: patent US20230174486A1, “NON-LYSOSOMAL GLUCOSYLCERAMIDASE INHIBITORS AND USES THEREOF” (ALECTOS THERAPEUTICS lNC., priority 2020, published 2023)

Experiments:
[1] = molecular target: T1, human non-lysosomal glucosylceramidase (GBA2) (Homo sapiens, UniProt Q9HCG7); assay: Binding specificity for GBA2 over other molecules (ratio of Ki or IC50 values); assay type: biochemical; conditions: qualitative statement, no values or other enzyme given
T1 sequence (Q9HCG7 1-927): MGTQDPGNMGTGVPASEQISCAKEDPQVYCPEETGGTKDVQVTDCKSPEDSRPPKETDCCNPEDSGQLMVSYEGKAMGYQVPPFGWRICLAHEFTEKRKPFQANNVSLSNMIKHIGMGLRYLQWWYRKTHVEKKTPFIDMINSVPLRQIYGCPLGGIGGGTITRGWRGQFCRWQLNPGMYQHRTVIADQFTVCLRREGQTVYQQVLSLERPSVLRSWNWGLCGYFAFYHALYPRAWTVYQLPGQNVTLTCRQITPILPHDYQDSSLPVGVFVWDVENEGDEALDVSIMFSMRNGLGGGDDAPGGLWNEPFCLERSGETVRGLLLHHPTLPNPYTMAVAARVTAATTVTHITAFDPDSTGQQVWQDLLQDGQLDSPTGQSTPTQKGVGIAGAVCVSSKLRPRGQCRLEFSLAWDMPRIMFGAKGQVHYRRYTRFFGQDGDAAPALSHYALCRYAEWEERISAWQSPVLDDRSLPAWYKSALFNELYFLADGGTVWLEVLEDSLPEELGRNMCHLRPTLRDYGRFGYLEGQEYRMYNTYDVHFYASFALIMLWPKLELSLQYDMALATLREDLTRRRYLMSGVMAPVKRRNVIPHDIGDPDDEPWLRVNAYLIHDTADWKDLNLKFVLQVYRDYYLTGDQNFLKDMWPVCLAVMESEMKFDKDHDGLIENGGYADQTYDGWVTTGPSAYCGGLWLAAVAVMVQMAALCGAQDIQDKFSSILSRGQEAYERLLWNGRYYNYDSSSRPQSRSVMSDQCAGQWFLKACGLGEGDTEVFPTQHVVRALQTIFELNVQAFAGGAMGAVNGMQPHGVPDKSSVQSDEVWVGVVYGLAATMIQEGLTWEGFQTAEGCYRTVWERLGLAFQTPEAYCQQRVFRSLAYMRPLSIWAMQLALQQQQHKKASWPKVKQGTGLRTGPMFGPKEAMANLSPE
From the text: In some embodiments, one or more of the compounds according to the invention may specifically bind a GBA2. In alternative embodiments, one or more of the compounds according to the invention may specifically bind the active site of a GBA2. […] In alternative embodiments, one or more of the compounds according to the invention may specifically bind the human non-lysosomal glucosylceramidase (GBA2) over the human lysosomal glucosylceramidase (GCase) and/or the human cytosolic glucosylceramidase (GBA3). In alternative embodiments, one or more of the compounds according to the invention may specifically bind the human non-lysosomal glucosylceramidase (GBA2) over the human glucosylceramide synthase (GCS). In alternative embodiments, one or more of the compounds according to the invention may specifically bind the human non-lysosomal glucosylceramidase (GBA2) over an intestinal alpha-glucosidase, where the intestinal alpha-glucosidase may be a sucrase-isomaltase or a maltase-glucoamylase.

[2] = molecular target: T2, human GBA2 (Homo sapiens, UniProt Q9HCG7); assay: Inhibition of GBA2 in cell lysate (4-methylumbelliferone-β-D glucopyranoside substrate); assay type: biochemical; conditions: homogenate of HEK293T cells stably overexpressing human GBA2, pH 5.5, 37° C., GCase inhibitor present
T2 construct: cellular homogenate
T2 sequence (Q9HCG7 1-927): T1 sequence (Q9HCG7 1-927)
Protocol: Stable GBA2-expressing HEK293T cells were generated as follows. The PCR-amplified human GBA2 (GBA2 nucleotide accession number BC011363) using the following primers: Sense 5’---CGCAAATGGGCGGTAGGCGTG---3’ and antisense 5’---TAGTCAGCCATGGGGCGGAGA ---3’) was cloned into pLenti-GIII-CMV by ABM Inc. The correctness of the construct was verified by sequencing. Lentivirus particles containing GBA2 in the pLenti-GIII-CMV plasmid were prepared using a third Generation Virus Packaging Mix (ABM cat# LV053-G074) in HEK293T cells and supplied as a virus particle suspension. The virus suspension was used for infection of HEK293T cells. Cell populations stably expressing human GBA2 were selected using puromycin for several weeks as determined by activity assays and western blot.
Various concentrations of test compounds were prepared in DMSO and then diluted into buffer consisting of 100 mM citric acid, 200 mM disodium phosphate with 1% v/v C10E6, pH 5.5. Cellular homogenates (0.25 mg/mL) of the stable HEK293T-overexpressing GBA2 cell line were preincubated for 10 min on ice with an inhibitor of GCase (20 µM (6R,7R,8S)-8-ethyl-4-azaspiro[2.5]octane-6,7-diol). The reaction solution consisted of 20 µL of 750 µM 4-methylumbelliferone-β-D glucopyranoside in 5% DMSO in the same buffer, 20 µL of GBA2-cellular homogenate pre-treated with (6R,7R,8S)-8-ethyl-4-azaspiro[2.5]octane-6,7-diol and 20 µL of various concentrations of test compound in 10% DMSO in the same buffer. The final concentrations in the reaction were 0.083 mg/mL GBA2-cellular homogenate, 250 µM 4-methylumbelliferone-β-D glucopyranoside, and various concentrations of inhibitor. The inhibitor and GBA2-cellular homogenate were preincubated together for 5 min at 37° C. The reaction was initiated by addition of substrate and allowed to proceed for 20 min at 37° C. to assess GBA2 activity. Reactions were stopped by the addition of an equal volume (60 µL) of 0.5 M NaOH, 0.3 M glycine, pH 10.5. Fluorescence was measured on a Biotek Synergy H4 plate reader at wavelengths of 365 nm for excitation and 450 nm for emission. Incubations without added enzyme or added inhibitors were used to define no enzyme activity and maximal enzyme activity, respectively. IC50 values were determined by fitting the data to a log[inhibitor concentration] versus response curve using GraphPad Prism. IC50 values were calculated as the concentration of inhibitor required to inhibit GBA2 activity by 50%.

Row | Structure (SMILES) | binding specificity, Ki(other molecule)/Ki(GBA2) or IC50(other molecule)/IC50(GBA2) [1] | GBA2 IC50 [2]
1 | OC[C@H]1[C@@H](O)[C@H](O)[C@@H](O)CN1CCc1c(F)cc(C2CCOCC2)cc1F [Example 21, (2S,3R,4R,5S)-1-(2,6-difluoro-4-(tetrahydro-2H-pyran-4-yl)phenethyl)-2-(hydroxymethyl)piperidine-3,4,5-triol] | enhanced binding specificity | ∗∗∗
2 | CCCCOc1ccc(CCN2C[C@H](O)[C@@H](O)[C@H](O)[C@@H]2CO)cc1 [Example 22, (2S,3R,4R,5S)-1-(4-butoxyphenethyl)-2-(hydroxymethyl)piperidine-3,4,5-triol] | enhanced binding specificity | ∗∗∗
3 | CCCCOc1cc(F)c(CCN2C[C@H](O)[C@@H](O)[C@H](O)[C@@H]2CO)c(F)c1 [Example 23, (2S,3R,4R,5S)-1-(4-butoxy-2,6-difluorophenethyl)-2-(hydroxymethyl)piperidine-3,4,5-triol] | enhanced binding specificity | ∗∗∗
4 | OC[C@H]1[C@@H](O)[C@H](O)[C@@H](O)CN1CC1CCN(c2ccc(F)cc2)CC1 [Example 24, (2S,3R,4R,5S)-1-((1-(4-fluorophenyl)piperidin-4-yl)methyl)-2-(hydroxymethyl)piperidine-3,4,5-triol] | enhanced binding specificity | ∗∗∗
5 | OC[C@H]1[C@@H](O)[C@H](O)[C@@H](O)CN1C[C@H]1CCN(c2ncccc2C(F)(F)F)C1 [Example 25, (2S,3R,4R,5S)-2-(hydroxymethyl)-1—(((R)—1-(3-(trifluoromethyl)pyridin-2-yl)pyrrolidin-3-yl)methyl)piperidine-3,4,5-triol] | enhanced binding specificity | ∗∗∗
6 | OC[C@H]1[C@@H](O)[C@H](O)[C@@H](O)CN1C[C@@H]1CCN(c2ncccc2C(F)(F)F)C1 [Example 27, (2S,3R,4R,5S)-2-(hydroxymethyl)-1—(((S)—1-(3-(trifluoromethyl)pyridin-2-yl)pyrrolidin-3-yl)methyl)piperidine-3,4,5-triol] | enhanced binding specificity | ∗∗∗
7 | OC[C@H]1[C@@H](O)[C@H](O)[C@@H](O)CN1C[C@@H]1CCN(c2nc(C(F)(F)F)cs2)C1 [Example 28, (2S,3R,4R,5S)-2-(hydroxymethyl)-1—(((S)—1-(4-(trifluoromethyl)thiazol-2-yl)pyrrolidin-3-yl)methyl)piperidine-3,4,5-triol] | enhanced binding specificity | ∗∗∗
8 | OC[C@H]1[C@@H](O)[C@H](O)[C@@H](O)CN1C[C@H]1CCCN(c2ncccc2C(F)(F)F)C1 [Example 29, (2S,3R,4R,5S)-2-(hydroxymethyl)-1—(((R)—1-(3-(trifluoromethyl)pyridin-2-yl)piperidin-3-yl)methyl)piperidine-3,4,5-triol] | enhanced binding specificity | ∗∗∗
9 | OC[C@H]1[C@@H](O)[C@H](O)[C@@H](O)CN1C[C@@H]1CCCN(c2ncccc2C(F)(F)F)C1 [Example 31, (2S,3R,4R,5S)-2-(hydroxymethyl)-1—(((S)—1-(3-(trifluoromethyl)pyridin-2-yl)piperidin-3-yl)methyl)piperidine-3,4,5-triol] | enhanced binding specificity | ∗∗∗
10 | OC[C@H]1[C@@H](O)[C@H](O)[C@@H](O)CN1C[C@@H]1CCCN(c2nc(C(F)(F)F)cs2)C1 [Example 32, (2S,3R,4R,5S)-2-(hydroxymethyl)-1—(((S)—1-(4-(trifluoromethyl)thiazol-2-yl)piperidin-3-yl)methyl)piperidine-3,4,5-triol] | enhanced binding specificity | ∗∗∗
